{"source": "patent US5776957A", "about": "“Nornicotine enantiomers for use as a treatment for dopamine related conditions and disease states” (The University of Kentucky Research Foundation, priority 1996, dated 1998)", "key": {"[1]": {"assay": "NIC and metabolites in rat brain after s.c. injection of radiolabelled NIC", "type": "in vivo"}, "[2]": {"test_system": "[3H]DA-preloaded rat striatal slices (nicotinic receptors)", "assay": "[3H]overflow (DA release) from [3H]DA-preloaded rat striatal slices", "type": "cell-based"}, "[3]": {"assay": "Locomotor activity assay, acute and repeated treatment, S(-) nicotine challenge, saline challenge", "type": "in vivo, rat", "conditions": "for cumulated locomotor activity after saline challenge: S(-) nicotine 1 mg/kg group; for cumulated locomotor activity vs saline-control: S(-) nicotine 1 mg/kg", "method": "(I mg/kg), norNIC (0.3-10 mg/kg) or R(+) norNIC (0.3-10 mg/kg) was administered peripherally (s.c., 8 injections once every 48 hrs) to groups of rats and locomotor activity was assessed for 50 min immediately after each injection.\nIn the present study, S(-) nicotine (1 mg/kg), R(+) nornicotine (1-10 mg/kg), S(-) nornicotine (1-10 mg/kg), or vehicle (saline) were administered s.c. to groups of rats (n=6) acutely or repeatedly (8 injections once every 48 hrs). Locomotor activity was measured during 50 min sessions immediately following drug or vehicle administration.\nMale Sprague-Hawley rats (225-250 g) from Harlan Laboratories were housed two per cage with free access to food and water.\nActivity was recorded automatically in a wooden test-chamber measuring 30×28×43 cm high. The chamber had white walls and a wire mesh floor over pine chip bedding. Two photobeams located 4.5 cm above the floor divided the chamber into four equal quadrants. Electromechanical equipment located in an adjacent room recorded photobeam interruptions automatically. A white noise generator provided an ambient 70 dB background noise in the test room in order to minimize extraneous sounds that might influence the animal's behavior in the test chamber. Rats were habituated to the chamber for 50 min on each of three consecutive days.\nOn the day immediately after the third habituation session, rats were randomly divided into groups (n=6/group) and were administered s.c. either S(-) nicotine (1 mg/kg), R(+) nornicotine (0.3, 1, 3 and 10 mg/kg), or vehicle (saline) to determine acute drug effects on locomotor activity. In a separate experiment, rats (n=6/group) were administered s.c. either S(-) nicotine (1 mg/kg), S(-) nornicotine (0.3, 1, 3 and 10 mg/kg), or vehicle (saline). To determine the effect of repeated drug administration on locomotor activity, drug or vehicle was administered respectively in the test-room once every 48 hrs for a total of 8 injections. After each injection, locomotor activity was recorded during a 50 min session (five 10-min blocks). On the ninth injection day (48 hrs following injection 8), each group of rats was administered a challenge dose (1 mg/kg) of S(-) nicotine in the test-room, and locomotor activity was determined immediately thereafter. On the tenth injection day, each group of rats was administered saline and locomotor activity recorded to determine potential conditioning effects of the repeated drug administration.\nPost hoc analysis of pairwise comparisons was performed with Duncan's New Multiple Range test."}, "[4]": {"test_system": "[3H]DA-preloaded rat striatal slices (nicotinic receptors)", "conditions": "cited from earlier work"}}, "note": "“Also recorded” adds a separate entry of the source.", "data": [{"smiles": "CN1CCC[C@H]1c1cccnc1", "note": "[S(-) nicotine]", "values": [{"measurement": "level in CNS at 4 hrs post-NIC-injection", "setting": "[1]; 4 hrs", "value": "only low levels were detected"}, {"measurement": "Tmax", "setting": "[1]; in vivo, rat brain, read-out: time of maximum uptake in brain", "value": "30 to 60", "unit": "min"}, {"measurement": "absolute [3H]overflow vs 20 mM K+ or 1 Hz, 60 pulses stimulation", "setting": "[2]", "value": "not significantly different"}, {"measurement": "evoked [3H]overflow", "setting": "[2]", "value": "increase in [^3 H]overflow; also recorded: stereoselective and concentration dependent increase"}, {"measurement": "plateau in [3H]overflow", "setting": "[2]", "value": 30, "unit": "mM"}, {"measurement": "plateau in response", "setting": "[2]", "value": "fail to produce a plateau in response"}, {"measurement": "time of peak effect", "setting": "[2]", "value": "10 to 15", "unit": "min"}, {"measurement": "time of return of release to basal levels", "setting": "[2]", "value": "30 to 60", "unit": "min"}, {"measurement": "behavioral sensitization after repeated administration", "setting": "[3]; 8 injections once every 48 hrs, nicotine 1 mg/kg, R(+) 0.3-10 mg/kg, S(-) nornicotine 10 mg/kg", "value": "robust behavioral sensitization"}, {"measurement": "conditioned response to repeated administration (saline challenge)", "setting": "[3]; 48 hrs after S(-) nicotine challenge", "value": "did not contribute to the observed behavioral sensitization"}, {"measurement": "cumulated locomotor activity after saline challenge", "setting": "[3]; R(+) experiment", "value": "485 ± 41 number of photobeam interruptions/50 min session"}, {"measurement": "cumulated locomotor activity after saline challenge", "setting": "[3]; S(-) experiment", "value": "429 ± 34 number of photobeam interruptions/50 min session"}, {"measurement": "locomotor activity time course", "setting": "[3]; acute S(-) nicotine 1 mg/kg, 20-40 min", "value": "did not alter activity"}, {"measurement": "locomotor activity time course", "setting": "[3]; acute S(-) nicotine 1 mg/kg, first 10 min", "value": "significantly decreased activity"}, {"measurement": "locomotor activity time course", "setting": "[3]; acute S(-) nicotine 1 mg/kg, last 10 min", "value": "significantly increased locomotor activity"}, {"measurement": "cumulated locomotor activity vs saline-control", "setting": "[3]; acute", "value": "not different from the saline-control group; also recorded: did not alter"}, {"measurement": "cumulated locomotor activity after S(-) nicotine challenge", "setting": "[3]; repeated S(-) nicotine group vs saline-control", "value": "significantly increased"}, {"measurement": "time course after S(-) nicotine challenge", "setting": "[3]; repeated S(-) nicotine, first 20 min (R(+) experiment) vs saline-control", "value": "significantly increased"}, {"measurement": "time course after S(-) nicotine challenge", "setting": "[3]; repeated S(-) nicotine, first 30 min (S(-) experiment)", "value": "significantly greater"}, {"measurement": "locomotor activity time course", "setting": "[3]; repeated S(-) nicotine, majority of time course", "value": "significant increase in activity"}, {"measurement": "cumulated locomotor activity vs saline-control", "setting": "[3]; repeated, 8 injections", "value": "significantly increased locomotor activity"}, {"measurement": "plateau concentration of concentration-response curve", "setting": "[4]; Izenwasser et al. (1991), 10-min exposure", "value": 0.1, "unit": "µM"}, {"measurement": "EC50", "setting": "[4]; rat striatal slices, Sacaan et al. (1995), read-out: EC50 for NIC-evoked [3H]overflow", "value": 3.7, "unit": "µM"}]}]}
